Among the data in PubChem BioAssay AID212 (DTP/NCI, 2004) are T/C values, retold here.

The test system of this test is BDF1 mice, colon carcinoma 38 sc, T/C %. Kind of test: NCI In Vivo Anticancer Drug Screen. Data for tumor model Colon Carcinoma 38 (subcutaneous) in B6D2F1 (BDF1) mice. The following applies: endpoint: median tumor weight (est.), higher = larger tumour. The procedure, abridged: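 Ratio of survival or tumor size, compound-treated animals relative to vehicle controls, in tumor-bearing mice.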

Where [1] appears, read: dose: 25.0 mg/kg/injection, schedule: Q07DX002 (ip), vehicle: saline with Tween-80.
[2] abbreviates: dose: 50.0 mg/kg/injection, schedule: Q07DX002 (ip), vehicle: saline with Tween-80.
Setting [3] is: dose: 100.0 mg/kg/injection, schedule: Q07DX002 (ip), vehicle: saline with Tween-80.
The mark [4] stands for this setting: dose: 25.0 mg/kg/injection, schedule: Q07DX002 (ip), vehicle: saline.
[5] abbreviates: dose: 100.0 mg/kg/injection, schedule: Q07DX002 (ip), vehicle: saline.
[6] abbreviates: dose: 200.0 mg/kg/injection, schedule: Q07DX002 (ip), vehicle: saline.
Setting [7] is: dose: 12.5 mg/kg/injection, schedule: Q07DX002 (ip), vehicle: Klucel (hydroxypropylcellulose) (HPC).
[8] abbreviates: dose: 50.0 mg/kg/injection, schedule: Q07DX002 (ip), vehicle: Klucel (hydroxypropylcellulose) (HPC).
Setting [9] is: dose: 1.0 mg/kg/injection, schedule: Q07DX002 (ip), vehicle: water.
Setting [10] is: dose: 2.0 mg/kg/injection, schedule: Q07DX002 (ip), vehicle: water.

SMILES strings stand for the structures. Where “and” joins values, the source holds several entries; their conditions need not be identical. Equal values may be shown once. Results filed as inconclusive are left out.

As to `CCCCCCCCCCCCCCCC(=O)OCC1OC(n2ccc(N)nc2=O)C(O)C1O` (centres undefined), the T/C is 72 % of control under setting [1], 36 % of control under setting [2] and 7 % of control under setting [3].
Take `C1CN2CN3CCN(CN1C3)C2`: the T/C was 111 % of control under setting [4], 166 % of control under setting [5] and 115 % of control under setting [6].
For the compound `CCN(CC)CCCC(C)Nc1c2ccc(Cl)cc2nc2ccc(OC)cc12` (centres undefined), the T/C was 96 % of control and 103 % of control (dose: 16.0 mg/kg/injection, schedule: Q07DX003 (ip), vehicle: suspension in saline); 95 % of control and 106 % of control (dose: 32.0 mg/kg/injection, schedule: Q07DX003 (ip), vehicle: suspension in saline); 53 % of control (dose: 64.0 mg/kg/injection, schedule: Q07DX003 (ip), vehicle: suspension in saline); 79 % of control (dose: 128.0 mg/kg/injection, schedule: Q07DX003 (ip), vehicle: suspension in saline).
As for `CCOC(=O)C1=C(C#N)C2(CCC(OCc3ccccc3)CC2)C(=O)O1` (centres undefined), the T/C reads like this: under setting [4], 47 % of control; (dose: 25.0 mg/kg/injection, schedule: Q07DX002 (ip), vehicle: suspension in saline) 87 % of control; (dose: 50.0 mg/kg/injection, schedule: Q07DX002 (ip), vehicle: saline) 53 % of control; under setting [5], 35 % of control; (dose: 100.0 mg/kg/injection, schedule: Q07DX002 (ip), vehicle: suspension in saline) 115 % of control; under setting [6], 73 % of control. For the same compound, the T/C is, setting by setting: (dose: 400.0 mg/kg/injection, schedule: Q07DX002 (ip), vehicle: saline) 47 % of control; (dose: 400.0 mg/kg/injection, schedule: Q07DX002 (ip), vehicle: suspension in saline) 102 % of control; (dose: 800.0 mg/kg/injection, schedule: Q07DX002 (ip), vehicle: saline) 64 % of control; (dose: 800.0 mg/kg/injection, schedule: Q07DX002 (ip), vehicle: suspension in saline) 102 % of control.
Regarding `C[Si](C)(C)O/C=C1\CCCCC1=O`, the T/C was 73 % of control and 91 % of control under setting [2]; 79 % of control and 100 % of control under setting [3].
Take `Nc1ccc(C(=O)O)c(O)c1`: the T/C was 120 % of control (dose: 42.0 mg/kg/injection, schedule: Q07DX002 (ip), vehicle: saline with Tween-80); 89 % of control (dose: 84.0 mg/kg/injection, schedule: Q07DX002 (ip), vehicle: saline with Tween-80); 93 % of control (dose: 168.0 mg/kg/injection, schedule: Q07DX002 (ip), vehicle: saline with Tween-80); 80 % of control (dose: 337.0 mg/kg/injection, schedule: Q07DX002 (ip), vehicle: saline with Tween-80); 111 % of control (dose: 675.0 mg/kg/injection, schedule: Q07DX002 (ip), vehicle: saline with Tween-80).
For the compound `C1CCC2OCCOCCOC3CCCCC3OCCOCCOC2C1` (centres undefined), the T/C is 210 % of control and 96 % of control (dose: 3.12 mg/kg/injection, schedule: Q07DX002 (ip), vehicle: Klucel (hydroxypropylcellulose) (HPC)); 176 % of control (dose: 6.25 mg/kg/injection, schedule: Q07DX002 (ip), vehicle: Klucel (hydroxypropylcellulose) (HPC)); 85 % of control under setting [7]; 85 % of control under setting [8].
Consider `C[n+]1ccc(Nc2ccc(NC(=O)c3ccc(Nc4cc[n+](C)c5ccc(N)cc45)cc3)cc2)cc1`, for which the T/C was 99 % of control (dose: 0.5 mg/kg/injection, schedule: Q07DX002 (ip), vehicle: water); 86 % of control under setting [9]; 93 % of control under setting [10].
As for `N#Cc1nc(C#N)c(Sc2ccccc2)c(Sc2ccccc2)c1Sc1ccccc1`, the T/C (dose: 6.25 mg/kg/injection, schedule: Q07DX002 (ip), vehicle: saline with Tween-80) was 93 % of control; the T/C (dose: 12.5 mg/kg/injection, schedule: Q07DX002 (ip), vehicle: saline with Tween-80) is 30 % of control; the T/C under setting [1] is 67 % of control; the T/C under setting [2] is 78 % of control; the T/C under setting [3] is 92 % of control; the T/C (dose: 200.0 mg/kg/injection, schedule: Q07DX002 (ip), vehicle: saline with Tween-80) is 54 % of control.
`CC(C)[C@]12O[C@H]1[C@@H]1O[C@]13[C@]1(O[C@H]1C[C@H]1C4=C(C(=O)OC4)[C@@H](O)C[C@@]13C)[C@@H]2O`: the T/C by setting is: (dose: 25.0 micrograms/kg/injection, schedule: Q07DX002 (ip), vehicle: saline + alcohol) 113 % of control; (dose: 100.0 micrograms/kg/injection, schedule: Q07DX002 (ip), vehicle: saline + alcohol) 113 % of control; (dose: 200.0 micrograms/kg/injection, schedule: Q07DX002 (ip), vehicle: saline + alcohol) 109 % of control; (dose: 400.0 micrograms/kg/injection, schedule: Q07DX002 (ip), vehicle: saline + alcohol) 63 % of control.
For `C[C@]12C=CC(=O)C=C1CC[C@@H]1[C@@H]2C(=O)C[C@@]2(C)[C@H]1CC[C@]2(O)C(=O)CO`, the T/C is 108 % of control under setting [7]; 115 % of control (dose: 25.0 mg/kg/injection, schedule: Q07DX002 (ip), vehicle: Klucel (hydroxypropylcellulose) (HPC)); 97 % of control (dose: 25.0 mg/kg/injection, schedule: Q07DX003 (ip), vehicle: Klucel (hydroxypropylcellulose) (HPC)); 93 % of control and 102 % of control under setting [8]; 100 % of control (dose: 50.0 mg/kg/injection, schedule: Q07DX003 (ip), vehicle: Klucel (hydroxypropylcellulose) (HPC)); 110 % of control (dose: 100.0 mg/kg/injection, schedule: Q07DX002 (ip), vehicle: Klucel (hydroxypropylcellulose) (HPC)). Besides, the T/C (dose: 100.0 mg/kg/injection, schedule: Q07DX003 (ip), vehicle: Klucel (hydroxypropylcellulose) (HPC)) was 76 % of control; the T/C (dose: 200.0 mg/kg/injection, schedule: Q07DX002 (ip), vehicle: Klucel (hydroxypropylcellulose) (HPC)) is 81 % of control and 101 % of control; the T/C (dose: 200.0 mg/kg/injection, schedule: Q07DX003 (ip), vehicle: Klucel (hydroxypropylcellulose) (HPC)) was 88 % of control; the T/C (dose: 400.0 mg/kg/injection, schedule: Q07DX003 (ip), vehicle: Klucel (hydroxypropylcellulose) (HPC)) is 45 % of control; the T/C (dose: 800.0 mg/kg/injection, schedule: Q07DX002 (ip), vehicle: Klucel (hydroxypropylcellulose) (HPC)) is 60 % of control; the T/C (dose: 1200.0 mg/kg/injection, schedule: Q07DX002 (ip), vehicle: Klucel (hydroxypropylcellulose) (HPC)) is 80 % of control.
For `C=C(C)[C@@H]1CC[C@@H]2C(=CC[C@]3(C)C([C@H](C)CC/C=C(/C)C(=O)O)CC[C@@]23C)[C@@]1(C)CCC(=O)O` (some centres undefined), the T/C is 90 % of control (dose: 50.0 mg/kg/injection, schedule: Q07DX002 (ip), vehicle: saline + alcohol); 91 % of control (dose: 100.0 mg/kg/injection, schedule: Q07DX002 (ip), vehicle: saline + alcohol); 105 % of control (dose: 200.0 mg/kg/injection, schedule: Q07DX002 (ip), vehicle: saline + alcohol); 45 % of control (dose: 400.0 mg/kg/injection, schedule: Q07DX002 (ip), vehicle: saline + alcohol).
Regarding `CC(=O)c1cccc(NC2C(N)C(NC(=O)N(C)C)(C(C)O)C(C)(O)C2(O)COC(=O)c2c(C)cccc2O)c1` (centres undefined), the T/C runs as follows: (dose: 1.0 mg/kg/injection, schedule: Q07DX002 (ip), vehicle: suspension in saline) 110 % of control; (dose: 2.0 mg/kg/injection, schedule: Q07DX002 (ip), vehicle: suspension in saline) 152 % of control; (dose: 4.0 mg/kg/injection, schedule: Q07DX002 (ip), vehicle: suspension in saline) 104 % of control; (dose: 8.0 mg/kg/injection, schedule: Q07DX002 (ip), vehicle: suspension in saline) 71 % of control.
Take `O=C1C=C2C(=CCOC2O)O1` (centres undefined): the T/C is, setting by setting: (dose: 0.75 mg/kg/injection, schedule: Q07DX002 (ip), vehicle: saline) 91 % of control; under setting [9], 98 % of control; (dose: 1.5 mg/kg/injection, schedule: Q07DX002 (ip), vehicle: saline) 72 % of control; under setting [10], 90 % of control; (dose: 4.0 mg/kg/injection, schedule: Q07DX002 (ip), vehicle: water) 117 % of control.
